Measurements as given in patent US20240101570A1 (AMGEN INC., priority 2020, published 2024).

What was measured:
HCT116 MTAP null cells = assay: HCT116 MTAP null cell proliferation / viability (CellTiter-Glo, 6 days); assay type: cell-based; conditions: HCT116-MTAP null, 144 h, HCT116 MTAP null cells, 6 days, CellTiter-Glo; read-out: HCT-116 MTAP null IC50
In short: (§1)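 CellTiter-Glo luminescence, 6-day exposure, RPMI 1640 + 10% FBS. Dosing: 1:3 series (8-9 pts, top 1 or 10 μM) or 1:2 series (22 pts, top 10 or 50 μM), DMSO control. IC50 = 50% of control via curve fit.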

HCT116 WT cells = assay: HCT116 WT cell proliferation / viability (CellTiter-Glo, 6 days); assay type: cell-based; conditions: Homo sapiens, HCT-116, 144 h, HCT116 WT cells, 6 days, CellTiter-Glo; read-out: HCT-116 WT IC50
In short: as §1

SMILES	IC50 (HCT116 MTAP null cells)	IC50 (HCT116 WT cells)
CCN(Cc1ccc(C(F)(F)F)nn1)C(=O)c1ccc2nc(N)c3cnn(C)c3c2c1 [Example 548, 4-amino-N-ethyl-1-methyl-N-((6-(trifluoromethyl)-3-pyridazinyl)methyl)-1H-pyrazolo[4,3-c]quinoline-8-carboxamide]	78 nM	6870 nM
CCN(Cc1ccc(C(F)(F)F)nn1)C(=O)c1ccc2nc(N)c3c(c2c1)CO[C@@H]3C [Example 551, (3R)-4-amino-N-ethyl-3-methyl-N-((6-(trifluoromethyl)-3-pyridazinyl)methyl)-1,3-dihydrofuro[3,4-c]quinoline-8-carboxamide]	125 nM	5570 nM
CCN(Cc1ccc(C(F)(F)F)cn1)C(=O)c1cc2c(cn1)nc(N)c1c(C)nn(C)c12 [Example 553, 4-amino-N-ethyl-1,3-dimethyl-N-((5-(trifluoromethyl)-2-pyridinyl)methyl)-1H-pyrazolo[4,3-c][1,7]naphthyridine-8-carboxamide]	247 nM	12400 nM
CCN(Cc1ccc(C(F)(F)F)nn1)C(=O)c1cc2c(cc1F)nc(N)c1cnn(C)c12 [Example 555, 4-amino-N-ethyl-7-fluoro-1-methyl-N-((6-(trifluoromethyl)-3-pyridazinyl)methyl)-1H-pyrazolo[4,3-c]quinoline-8-carboxamide]	23 nM	2040 nM
CCN(Cc1ccc(C(F)(F)F)cn1)C(=O)c1cc2c3c(c(N)nc2cc1F)[C@@H](C)OC3 [Example 556, (3R)-4-amino-N-ethyl-7-fluoro-3-methyl-N-((5-(trifluoromethyl)-2-pyridinyl)methyl)-1,3-dihydrofuro[3,4-c]quinoline-8-carboxamide]	14 nM	458 nM
CCN(Cc1ccc(C(F)(F)F)cn1)C(=O)c1cc2c3c(c(N)nc2cc1F)[C@H](C)OC3 [Example 557, (3S)-4-amino-N-ethyl-7-fluoro-3-methyl-N-((5-(trifluoromethyl)-2-pyridinyl)methyl)-1,3-dihydrofuro[3,4-c]quinoline-8-carboxamide]	375 nM	12300 nM
CN(Cc1ccc(C(F)(F)F)cc1)C(=O)c1cc2c(cc1Cl)nc(N)c1cnn(C)c12 [Example 558, 4-amino-7-chloro-N,1-dimethyl-N-(4-(trifluoromethyl)benzyl)-1H-pyrazolo[4,3-c]quinoline-8-carboxamide]	19 nM	421 nM
CCN(Cc1ccc(C(F)(F)F)nn1)C(=O)c1cc2c3c(c(N)nc2cc1F)[C@@H](C)OC3 [Example 559, (3R)-4-amino-N-ethyl-7-fluoro-3-methyl-N-((6-(trifluoromethyl)-3-pyridazinyl)methyl)-1,3-dihydrofuro[3,4-c]quinoline-8-carboxamide]	30 nM	1180 nM
CCN(Cc1ccc(C(F)(F)F)cn1)C(=O)c1cc2c(cc1F)nc(N)c1c(C)nn(C)c12 [Example 560, 4-amino-N-ethyl-7-fluoro-1,3-dimethyl-N-((5-(trifluoromethyl)-2-pyridinyl)methyl)-1H-pyrazolo[4,3-c]quinoline-8-carboxamide]	56 nM	4140 nM
CN(Cc1ccc(C(F)(F)C(F)(F)F)cc1)C(=O)c1ccc2nc(N)c3cnn(C)c3c2c1 [Example 561, 4-amino-N,1-dimethyl-N-(4-(pentafluoroethyl)benzyl)-1H-pyrazolo[4,3-c]quinoline-8-carboxamide]	89 nM	5330 nM
CN(Cc1ccc(C(F)(F)C(F)(F)F)cc1)C(=O)c1cc2c(cc1F)nc(N)c1cnn(C)c12 [Example 563, 4-amino-7-fluoro-N,1-dimethyl-N-(4-(pentafluoroethyl)benzyl)-1H-pyrazolo[4,3-c]quinoline-8-carboxamide]	28 nM	2080 nM
CN(Cc1ccc(C(F)(F)F)cn1)C(=O)c1ccc2nc(N)c3cnn(C)c3c2c1 [Example 567, 4-amino-N,1-dimethyl-N-((5-(trifluoromethyl)-2-pyridinyl)methyl)-1H-pyrazolo[4,3-c]quinoline-8-carboxamide]	90 nM	6790 nM
Cn1ncc2c(N)nc3ccc(C(=O)N(Cc4ccc(C(F)(F)F)cn4)C4CC4)cc3c21 [Example 569, 4-amino-N-cyclopropyl-1-methyl-N-((5-(trifluoromethyl)-2-pyridinyl)methyl)-1H-pyrazolo[4,3-c]quinoline-8-carboxamide]	31 nM	3890 nM

Second part, the molecule after the results:

IC50 (HCT116 MTAP null cells)	IC50 (HCT116 WT cells)	SMILES
20 nM	487 nM	CCN(Cc1ccc(C(F)(F)F)cn1)C(=O)c1cc2c(cn1)nc(N)c1cnn(C)c12 [Example 549, 4-amino-N-ethyl-1-methyl-N-((5-(trifluoromethyl)-2-pyridinyl)methyl)-1H-pyrazolo[4,3-c][1,7]naphthyridine-8-carboxamide]
66 nM	1800 nM	CCN(Cc1ccc(C(F)(F)F)nn1)C(=O)c1cc2c(cn1)nc(N)c1cnn(C)c12 [Example 550, 4-amino-N-ethyl-1-methyl-N-((6-(trifluoromethyl)-3-pyridazinyl)methyl)-1H-pyrazolo [4,3-c][1,7]naphthyridine-8-carboxamide]
25 nM	1880 nM	CN(Cc1ccc(C(F)(F)F)cc1)C(=O)c1cc2c(cc1F)nc(N)c1cnn(C)c12 [Example 552, 4-amino-7-fluoro-N,1-dimethyl-N-(4-(trifluoromethyl)benzyl)-1H-pyrazolo[4,3-c]quinoline-8-carboxamide]
8 nM	181 nM	CCN(Cc1ccc(C(F)(F)F)cn1)C(=O)c1cc2c(cc1F)nc(N)c1cnn(C)c12 [Example 554, 4-amino-N-ethyl-7-fluoro-1-methyl-N-((5-(trifluoromethyl)-2-pyridinyl)methyl)-1H-pyrazolo[4,3-c]quinoline-8-carboxamide]
86 nM	3530 nM	CN(Cc1ccc(C(F)(F)C(F)(F)F)cc1)C(=O)c1cc2c(cn1)nc(N)c1cnn(C)c12 [Example 562, 4-amino-N,1-dimethyl-N-(4-(pentafluoroethyl)benzyl)-1H-pyrazolo[4,3-c][1,7]naphthyridine-8-carboxamide]
21 nM	925 nM	CCN(Cc1ccc(S(F)(F)(F)(F)F)cc1)C(=O)c1ccc2nc(N)c3cnn(C)c3c2c1 [Example 564, 4-amino-N-ethyl-1-methyl-N-(4-(pentafluoro-lambda~6~- sulfanyl)benzyl)-1H-pyrazolo[4,3-c]quinoline-8-carboxamide]
19 nM	653 nM	CCN(Cc1ccc(S(F)(F)(F)(F)F)cc1)C(=O)c1cc2c(cn1)nc(N)c1cnn(C)c12 [Example 565, 4-amino-N-ethyl-1-methyl-N-(4-(pentafluoro-lambda~6~- sulfanyl)benzyl)-1H-pyrazolo[4,3-c][1,7]naphthyridine-8-carboxamide]
13 nM	181 nM	CCN(Cc1ccc(S(F)(F)(F)(F)F)cc1)C(=O)c1cc2c(cc1F)nc(N)c1cnn(C)c12 [Example 566, 4-amino-N-ethyl-7-fluoro-1-methyl-N-(4-(pentafluoro-lambda~6~-sulfanyl)benzyl)-1H-pyrazolo[4,3-c]quinoline-8-carboxamide]
91 nM	5390 nM	CN(Cc1ccc(C(F)(F)F)cn1)C(=O)c1cc2c(cn1)nc(N)c1cnn(C)c12 [Example 568, 4-amino-N,1-dimethyl-N-((5-(trifluoromethyl)-2-pyridinyl)methyl)-1H-pyrazolo[4,3-c][1,7]naphthyridine-8-carboxamide]
